# Target: T1, recombinant cGAS (aa147-522) (Homo sapiens, UniProt Q8N884)
# T1 construct: recombinant cGAS (aa147-522); His6-SUMO (N, cleaved yes); made in house; host or cells: E. coli BL21/pLys
# Assay: In vitro assay for inhibition of cGAS activity (ATP consumption, Kinase Glo)
# Format: biochemical
# Conditions: 37° C. 20 minutes, read-out: Activity (Inhibition of cGAS enzyme activity in vitro, IC50)
# Description: cDNA encoding full-length or amino acids 147-520 of human cGAS is inserted into a modified pET28a vector containing an in-frame His6-SUMO tag. The E. coli strain BL21/pLys harboring the plasmid is induced with 0.5 mM IPTG at 18° C. overnight. His6-SUMO tag was removed by a SUMO proease following purification of the HiS-SUMO-cGAS as described previously (Sun et al, 2013, Science 339, 786).
# A40 μL mixture containing 1.5 ng/μL of recombinant cGAS (aa147-522) and serial dilutions of a test compound or DMSO was added to a 96-well plate and incubated at 37° C. for 20 minutes. At the end of reaction, 20 μL of Kinase Glo (Promega) was added and chemiluminescence measured with a luminometer. Inhibitory effect of a compound is evaluated by plotting percentage of ATP consumption against logarithm of compound concentrations. IC50 value was calculated using Graphpad (Sigma).
# T1 sequence (Q8N884 147-522): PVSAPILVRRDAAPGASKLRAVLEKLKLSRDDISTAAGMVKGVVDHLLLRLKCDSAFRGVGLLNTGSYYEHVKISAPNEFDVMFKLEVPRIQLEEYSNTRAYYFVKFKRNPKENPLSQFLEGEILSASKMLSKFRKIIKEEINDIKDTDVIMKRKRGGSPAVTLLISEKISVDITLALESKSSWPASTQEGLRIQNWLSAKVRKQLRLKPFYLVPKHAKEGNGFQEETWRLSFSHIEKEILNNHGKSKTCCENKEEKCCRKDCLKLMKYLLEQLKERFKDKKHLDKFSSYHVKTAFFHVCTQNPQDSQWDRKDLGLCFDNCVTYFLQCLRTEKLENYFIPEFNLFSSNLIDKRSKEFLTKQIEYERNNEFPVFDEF
row,SMILES,IC50 [µM]
1,Cc1nc(N)nc(C)c1COc1cc(/C=C2\SC(=O)N(C)C2=O)c(Br)cc1O [Ex223],0.5 to 10
2,CN1C(=O)S/C(=C\c2cc(Oc3ccc([N+](=O)[O-])nc3)c(O)cc2Br)C1=O [Ex102],0.5 to 10
3,CN1C(=O)S/C(=C\c2cc(OCc3cnc(NCc4ccccn4)nc3)c(O)c(F)c2Br)C1=O [Ex188],0.5 to 10
4,Cc1nc([S+](C)[O-])nc(C)c1COc1cc(/C=C2\SC(=O)N(C)C2=O)c(Br)cc1O (centres unmarked) [Ex215],0.5 to 10
5,CCC(Oc1cc(/C=C2\SC(=O)N(C)C2=O)c(Br)c(F)c1O)c1cnc(Cl)nc1 (centres unmarked) [ExB31],0.5 to 10
6,O=C1/C(=C/c2ccc(O)cc2Br)Sc2ncccc21 [Ex71],≤ 0.5
7,CC(Oc1cc(/C=C2\SC(=O)N(C)C2=O)c(Br)c(F)c1Oc1cnc(N)s1)c1cnc(N)nc1 (centres unmarked) [ExB10],0.5 to 10
8,COc1cc(/C=c2\sc3n(c2=O)CCCN=3)c(Br)cc1O [Ex42],0.5 to 10
9,Cc1nc2c(Oc3cc(/C=C4\SC(=O)N(C)C4=O)c(Br)cc3O)cccc2o1 [ExB13],0.5 to 10
10,CSc1nc([S+](C)[O-])ncc1COc1cc(/C=C2\Sc3ncccc3C2=O)c(Br)c(F)c1O (centres unmarked) [ExA16],≤ 0.5
11,CN1C(=O)S/C(=C\c2cc(OCCc3cnc(N)nc3N)c(O)c(F)c2Br)C1=O [ExB32],≤ 0.5
12,CSc1cc(/C=C2\SC(=O)N(C)C2=O)c(Br)cc1O [Ex69],0.5 to 10
13,Nc1ncc(/C=C/c2cc(/C=C3\Sc4ncccc4C3=O)c(Br)cc2O)cn1 [ExB42],≤ 0.5
14,COc1cccc(Oc2cc(/C=C3\SC(=O)N(C)C3=O)c(Br)cc2O)c1N [ExB11],≥ 10
15,COc1cc(/C=C2\SC(=O)N(C)C2=O)c(Br)cc1Oc1cnc(NCc2cccnc2)s1 [Ex207],0.5 to 10
16,CN1C(=O)S/C(=C\c2cc(Oc3cnc(N)s3)c(O)c(F)c2Br)C1=O [ExB30],0.5 to 10
17,Cc1nc(N)ncc1C(C)Oc1cc(/C=C2\SC(=O)N(C)C2=O)c(Br)cc1O (centres unmarked) [Ex183],0.5 to 10
18,CC(=O)c1cc(/C=C2\SC(=O)N(C)C2=O)c(Br)cc1O [Ex59],0.5 to 10
19,COc1cc(/C=C2\SC(=O)N(C)C2=O)c(C)cc1O [Ex64],0.5 to 10
20,COc1cc(/C=C2\SC(=O)N(C)C2=O)c(Br)cc1Oc1cnc(NCc2ccncc2)s1 [Ex206],0.5 to 10
21,COc1cc(/C=C2\SC(=O)N(C)C2=O)c(Br)cc1Oc1nncs1 [Ex201],0.5 to 10
22,CN1C(=O)S/C(=C\c2cc(OCc3ccc4ncccc4c3)c(O)cc2Br)C1=O [Ex174],≥ 10
23,CC(Oc1cc(/C=C2\SC(=O)N(C)C2=O)c(Br)c(F)c1O)C(O)c1cncnc1N (centres unmarked) [ExB37],≤ 0.5
24,COc1cc(/C=C2\SC(=O)N(C)C2=O)c(Br)cc1NS(C)(=O)=O [Ex22],≥ 10
25,CN1C(=O)S/C(=C\c2cc(Oc3cccc4cnccc34)c(O)cc2Br)C1=O [ExB25],≥ 10

row,SMILES,IC50 [µM]
1,COc1cc(/C=c2\sc3n(c2=O)CCN=3)c(Br)cc1O [Ex40],0.5 to 10
2,CN1C(=O)S/C(=C\c2cc(Oc3ccc(=O)[nH]c3)c(O)cc2Br)C1=O [Ex231],0.5 to 10
3,CN1C(=O)S/C(=C\c2cc(OCc3ccc(NC(=O)c4ccccn4)nc3)c(O)cc2Br)C1=O [Ex56],0.5 to 10
4,CN1C(=O)S/C(=C\c2cc(OCc3cnc(N)nc3C(F)(F)F)c(O)cc2Br)C1=O [Ex172],≤ 0.5
5,CC(Oc1cc(/C=C2\Sc3ncccc3C2=O)c(Br)cc1O)c1cccnc1 (centres unmarked) [Ex119],0.5 to 10
6,CC(Oc1cc(/C=C2\SC(=O)N(C)C2=O)c(Br)cc1O)c1cncnc1 (centres unmarked) [Ex103],0.5 to 10
7,CN1C(=O)S/C(=C\c2cc(Oc3ccncc3)c(O)cc2Br)C1=O [Ex230],≥ 10
8,CC(Oc1cc(/C=C2\SC(=O)N(C)C2=O)c(Br)c(F)c1O)c1cncnc1 (centres unmarked) [Ex192],0.5 to 10
9,CN1C(=O)S/C(=C\c2cc3oc(=O)[nH]c3cc2Br)C1=O [Ex25],0.5 to 10
10,CN1C(=O)S/C(=C\c2cc(OCc3ccc(NC(=O)c4ccncc4)nc3)c(O)cc2Br)C1=O [Ex54],≤ 0.5
11,CN1C(=O)S/C(=C\c2cc(OCc3cccc4cnccc34)c(O)cc2Br)C1=O [Ex173],0.5 to 10
12,O=C1/C(=C/c2cc(OCc3cnc(NCc4ccccn4)nc3)c(O)cc2Br)Sc2ncccc21 [Ex198],≤ 0.5
13,CN1C(=O)S/C(=C\c2ccc(O)cc2Br)C1=O [Ex52],0.5 to 10
14,CC(=O)c1cc(N)ccc1Oc1cc(/C=C2\SC(=O)N(C)C2=O)c(Br)c(F)c1O [ExB7],≥ 10
15,O=C1NC(=O)/C(=C/c2c[nH]cn2)S1 [Ex6],≥ 10
16,CN1C(=O)S/C(=C\c2cc(CCc3ccc([S+](C)[O-])cc3)c(O)cc2Br)C1=O (centres unmarked) [ExB38],≥ 10
17,CCc1cc(/C=C2\SC(=O)N(C)C2=O)c(Br)cc1O [Ex58],0.5 to 10
18,CN1C(=O)S/C(=C\c2cc(OCc3ccn(-c4ccccc4)c(=O)c3)c(O)cc2Br)C1=O [Ex136],0.5 to 10
19,CN1C(=O)S/C(=C\c2cc(OCC(=O)Nc3nncs3)c(O)c(F)c2Br)C1=O [ExB1],0.5 to 10
20,CC(=O)c1cc(/C=C2\SC(=O)N(C)C2=O)c(Br)cc1Oc1cnc(N)s1 [ExB34],≥ 10
21,COc1cc(/C=C2\SC(=O)N(C)C2=O)c(C(F)(F)F)cc1O [Ex31],0.5 to 10
22,CC(C)c1cc(/C=C2\Sc3ncccc3C2=O)c(Br)cc1O [ExB19],≥ 10
23,CN1C(=O)S/C(=C\c2cc(Oc3ccc(-c4ccccn4)cc3)c(O)cc2Br)C1=O [ExB26],≥ 10
24,CC/N=C1/S/C(=C\c2cc(OC)c(O)cc2Br)C(=O)N1C [ExB23],≥ 10

# The remaining lines, values ahead:
row,IC50 [µM],SMILES
1,0.5 to 10,CN1C(=O)S/C(=C\c2cc(OCc3ccnc(N)n3)c(O)cc2Br)C1=O [Ex138]
2,0.5 to 10,CN1C(=O)S/C(=C\c2cc(OCc3cnc(C4CC4)nc3)c(O)cc2Br)C1=O [Ex94]
3,0.5 to 10,CNc1ncc(C(C)Oc2cc(/C=C3\SC(=O)N(C)C3=O)c(Br)cc2O)cn1 (centres unmarked) [Ex105]
4,≤ 0.5,Cc1ncc(COc2cc(/C=C3\SC(=O)N(C)C3=O)c(Br)cc2O)cn1 [Ex142]
5,0.5 to 10,CN1C(=O)S/C(=C\c2cc(OCc3cnc(-c4ccccc4)nc3)c(O)cc2Br)C1=O [Ex145]
6,0.5 to 10,CN1C(=O)S/C(=C\c2cc(OCc3cnc(-n4cccn4)nc3)c(O)cc2Br)C1=O [Ex169]
7,0.5 to 10,CSc1ncc(COc2cc(/C=C3\SC(=O)N(C)C3=O)c(Br)cc2O)cn1 [Ex144]
8,≥ 10,CSc1ncc(COc2cc(/C=C3\SC(=O)N(C)C3=O)c(Br)cc2O)c(SC)n1 [Ex100]
9,0.5 to 10,COc1nc(N)ncc1COc1cc(/C=C2\SC(=O)N(C)C2=O)c(Br)cc1O [Ex222]
10,0.5 to 10,CN1C(=O)S/C(=C\c2cc(OCc3ccnc(N)c3)c(O)cc2Br)C1=O [Ex133]
11,0.5 to 10,CN1C(=O)S/C(=C\c2cc(OCc3cnc(Nc4ccccn4)nc3)c(O)cc2Br)C1=O [Ex83]
12,0.5 to 10,CN1C(=O)S/C(=C\c2cc(OCc3cnc(NCc4ccccc4)nc3)c(O)cc2Br)C1=O [Ex154]
13,0.5 to 10,CC(Oc1cc(/C=C2\SC(=O)N(C)C2=O)c(Br)cc1O)c1cnc(Cl)nc1 (centres unmarked) [Ex104]
14,0.5 to 10,CC(C)CNc1ncc(COc2cc(/C=C3\SC(=O)N(C)C3=O)c(Br)cc2O)cn1 [Ex151]
15,≥ 10,CN1C(=O)S/C(=C\c2cc(OCc3cncc(NCc4ccccn4)c3)c(O)cc2Br)C1=O [Ex227]
16,≤ 0.5,CN1C(=O)S/C(=C\c2cc(OCc3cnc(Nc4ccncc4)nc3)c(O)cc2Br)C1=O [Ex160]
17,0.5 to 10,Cc1ncc(C(C)Oc2cc(/C=C3\SC(=O)N(C)C3=O)c(Br)cc2O)cn1 (centres unmarked) [Ex180]
18,0.5 to 10,CN1C(=O)S/C(=C\c2cc(OCc3cnc(S(C)(=O)=O)nc3Cl)c(O)cc2Br)C1=O [Ex221]
19,0.5 to 10,CN1C(=O)S/C(=C\c2cc(OCc3cnc(-c4ccccn4)nc3)c(O)cc2Br)C1=O [Ex97]
20,≤ 0.5,CN1C(=O)S/C(=C\c2cc(OCc3cnc(-c4ccncc4)nc3)c(O)cc2Br)C1=O [Ex146]
21,0.5 to 10,CN1CCC(c2ncc(COc3cc(/C=C4\SC(=O)N(C)C4=O)c(Br)cc3O)cn2)CC1 [Ex209]
22,0.5 to 10,CN1C(=O)S/C(=C\c2cc(OCc3cnc(-n4ccnc4)nc3)c(O)cc2Br)C1=O [Ex168]
23,≤ 0.5,CC(Oc1cc(/C=C2\SC(=O)N(C)C2=O)c(Br)cc1O)c1cnc(N)nc1 (centres unmarked) [Ex84]
24,≤ 0.5,CN1C(=O)S/C(=C\c2cc(OCc3cnc(NC(=O)c4ccncc4)nc3)c(O)cc2Br)C1=O [Ex161]
25,0.5 to 10,CN1CCN(c2ncc(COc3cc(/C=C4\SC(=O)N(C)C4=O)c(Br)cc3O)cn2)CC1 [Ex167]

# Reference: US12065416B2, “cGAS antagonist compounds” (IMMUNESENSOR THERAPEUTICS, INC., priority 2016, dated 2024)
